Experiments:
[1] = TK assay, intravenous mixture dosing: serum concentrations and noncompartmental analysis (sparse data); conditions: female, rabbit, in vivo, iv; for Vd: IV mixture dosing, NCA, n=12
Protocol: (§1) The experiment was carried out on thirty 10-wk old female New Zealand white rabbits (INRA 1777 line) weighing 2.37±0.14kg . […] Blood samples were taken at the designated time points post IV and oral administration: 15 min, 30 min, 1 h, 2 h, 4 h, 8 h, 12 h, 24 h, 3 d, 7 d, and 28 d from groups of 3 or 6 rabbits at each sampling time. Each rabbit was sampled 3 times and 3 rabbits were sampled at each sampling time, except at 30 min post administration, when 6 samples were collected to provide a sufficient blood volume for assaying the compounds. The doses and assay time points were selected to allow the calculation of TK parameters (Table 1) based on preliminary TK data. Residual concentrations of the compounds, and their possible evolution over time, were determined by sampling six entirely untreated rabbits during the TK study on the day of drug administrations, then 14 d and 28 d later.
(§2) The volume administered was adjusted to the animal’s body weight (BW) recorded the day before.
(§3) Intravenous administrations were performed via an indwelling catheter (22G Terumo, 0.9×25mm ) just after its insertion into an ear vein. […] For oral administrations, the mixture of all compounds ( 4mL/kg ) was deposited directly in the mouth of rabbits using a catheter (22G BD Insyte 22G, 0.9×25mm ). Prior to the study, the rabbits had been trained to gradually swallow water and then corn oil.
(§4) Blood samples were collected from the auricular artery using a 20 G needle ( 0.9×25mm ) and a dry tube. The first two blood samples were 8–10mL in volume, whereas a large volume (about 20mL ) was obtained antemortem immediately after electrical stunning (95LX rabbit stunner; Burdis), followed by exsanguination.
(§5) Serum concentration-time profiles of the different compounds were first analyzed using a noncompartmental approach (NCA) involving a sparse data option. Sparse data methodology consists of calculating TK parameters based on the mean profile of all the subjects in the dataset and is appropriate when a rich data series cannot be obtained, as in the present experiment ([FDA 1999]). The area under the concentration time curve ( AUC0−tlast ) and the area under the first moment curve ( AUMC0−tlast ) from dosing time ( t=0 ) to the time of the last measurable concentration were calculated using the linear trapezoidal rule after IV and oral dosing. The area under the serum concentration time curve from dosing time to infinity ( AUC0−inf ) was obtained by adding to AUC0−tlast the area extrapolated from the time of the last measurable concentration to infinity by dividing the last quantifiable serum concentration by the slope of the terminal phase ( λZ ), as estimated by linear regression using the best fit option of Phoenix®.
(§6) The clearance (CL) and apparent clearance (CL_F) were respectively estimated after IV and oral administrations by dividing the administered dose by the AUC0−inf calculated for each analyte.
(§7) The terminal half-life (HL) was estimated with Equation 1: (1) HL=0.69315/λZ where λz is the slope of the terminal phase.
The mean residence time (MRT) was estimated using Equation 3: (3) MRT=AUMCiv0−tlast /AUCiv0−tlast , where AUCMiv0−tlast and AUCiv0−tlast are the values of AUMC0−tlast and AUC0−tlast obtained after IV dosing.
The steady-state volume of distribution ( VSS ) was estimated using Equation 4: (4) VSS=CL×MRT, with CL and MRT as defined above.

[2] = TK assay, oral mixture dosing: serum concentrations and noncompartmental analysis (sparse data); conditions: female, rabbit, in vivo, po
Protocol: as §1, §2, §3, §4, §5, §6, §7
The oral bioavailability (F) was estimated using Equation 2: (2) F=AUCvo0−tlast×Doseiv/AUCiv0−tlast×Dosevo, where AUCiv0−tlast and AUCvo0-tlast are the values of AUC0−tlast obtained after IV and oral dosing, respectively, and Doseiv and Dosevo are the IV and oral doses.

[3] = Chronic exposure: daily oral mixture for 17 wk, steady-state serum concentrations; conditions: female, New Zealand white (INRA 1777 line), rabbit, in vivo, po
Protocol: The objective of this preliminary experiment was to check the ability of our approach to determine the loading and maintenance doses of the eight compounds to be administered simultaneously by oral route to reproduce in female rabbits targeted serum concentrations. The experiment was carried out on thirty-two 2-wk old female New Zealand white rabbits (INRA 1777 line) randomly allocated to a treatment and control groups of 16 rabbits weighing 309±45g and 298±62g , respectively. The treated rabbits were orally administrated a mixture of the eight compounds at a dosage corresponding to the sum of the loading and daily maintenance doses followed by daily administrations of the maintenance dose for 17 wk (see the “Estimation of the doses” section). The control group was orally administrated the vehicle for the same duration.
The volume of the maintenance dosing solution ( 1mL/kg ) was weekly adjusted to the mean BW estimated from the known pattern of growth of the INRA 1777 rabbit line. Oral dosing and antemortem blood sampling were performed as previously described.
Blood samples were left to clot for about 20–30 min at ambient temperature and centrifuged for 20 min at 3,000×g at 25°C. The separated serum was stored in glass tubes at −20°C until assayed.

[4] = New Zealand white (INRA 1777 line)

SMILES: Brc1ccc(Oc2ccc(Br)cc2Br)c(Br)c1 [BDE-47, 2,2′,4,4′-tetrabromodiphenyl ether]
- AUC(0-inf) [1, 4]: 42.2 µM·h
- Cmax [1, 4]: 1.82 µM
- MRT [1, 4]: 86.9 h
- clearance [1, 4]: 0.23 L/h/kg
- half-life [1, 4]: 162 h
- Vd ([1]; New Zealand white (INRA 1777 line), VSS): 20.3 L/kg
- Vd ([1]; New Zealand white (INRA 1777 line), VZ): 54.8 L/kg
- concentration at 24.03 h ([1]; New Zealand white, Serum concentration, rabbit 1, 24.03 h): 0.12 µM
- concentration at 24 h ([1]; New Zealand white, Serum concentration, rabbit 2, […]): 0.14 µM
- concentration at 24 h ([1]; New Zealand white, Serum concentration, rabbit 3, […]): 0.13 µM
- concentration at 72 h ([1]; New Zealand white, Serum concentration, rabbit 4, 72.00 h): 0.056 µM
- concentration at 72.03 h ([1]; New Zealand white, Serum concentration, rabbit 5, 72.03 h): 0.063 µM
- concentration at 71.97 h ([1]; New Zealand white, Serum concentration, rabbit 6, 71.97 h): 0.042 µM
- concentration at 168 h ([1]; New Zealand white, Serum concentration, rabbit 7, 168.00 h): 0.031 µM
- concentration at 167.92 h ([1]; New Zealand white, Serum concentration, rabbit 8, 167.92 h): 0.025 µM
- concentration at 168 h ([1]; New Zealand white, Serum concentration, rabbit 9, 168.00 h): 0.037 µM
- concentration at 0.67 h ([1]; New Zealand white, Serum concentration, rabbit 10, 0.67 h): 1.99 µM
- concentration at 671.96 h ([1]; New Zealand white, Serum concentration, rabbit 10, 671.96 h): 0.0039 µM
- concentration at 0.77 h ([1]; New Zealand white, Serum concentration, rabbit 11, 0.77 h): 1.77 µM
- concentration at 672 h ([1]; New Zealand white, Serum concentration, rabbit 11, 672.00 h): 0.0053 µM
- concentration at 0.6 h ([1]; New Zealand white, Serum concentration, rabbit 12, 0.60 h): 1.82 µM
- concentration at 671.83 h ([1]; New Zealand white, Serum concentration, rabbit 12, 671.83 h): 0.0028 µM
- AUC(0-inf) [2, 4]: 79.5 µM·h
- CL/F [2, 4]: 0.3 L/h/kg
- Cmax [2, 4]: 0.64 µM
- MRT [2, 4]: 258 h
- Tmax [2, 4]: 24 h
- Vd/F [2, 4]: 116 L/kg
- bioavailability [2, 4]: 78%
- half-life [2, 4]: 267 h
- concentration at 24 h ([2]; New Zealand white (INRA 1777 line), Serum concentration, oral, rabbit 13, […], MEHP after oral DEHP): 0.77 µM
- concentration at 24 h ([2]; New Zealand white (INRA 1777 line), Serum concentration, oral, rabbit 14, […], MEHP after oral DEHP): 0.51 µM
- concentration at 23.98 h ([2]; New Zealand white (INRA 1777 line), Serum concentration, oral, rabbit 15, 23.98 h, MEHP after oral DEHP): 0.3 µM
- concentration at 168 h ([2]; New Zealand white (INRA 1777 line), Serum concentration, rabbit 21, 168.00 h): 0.11 µM
- concentration at 0.57 h ([2]; New Zealand white (INRA 1777 line), Serum concentration, rabbit 22, 0.57 h): 0.012 µM
- concentration at 672.02 h ([2]; New Zealand white (INRA 1777 line), Serum concentration, rabbit 22, 672.02 h): 0.017 µM
- concentration at 0.55 h ([2]; New Zealand white (INRA 1777 line), Serum concentration, rabbit 23, 0.55 h): 0.033 µM
- concentration at 671.96 h ([2]; New Zealand white (INRA 1777 line), Serum concentration, rabbit 23, 671.96 h): 0.027 µM
- concentration at 0.55 h ([2]; New Zealand white (INRA 1777 line), Serum concentration, rabbit 24, 0.55 h): 0.11 µM
- concentration at 672.02 h ([2]; New Zealand white (INRA 1777 line), Serum concentration, rabbit 24, 672.02 h): 0.03 µM
- concentration at 72 h ([2]; New Zealand white, Serum concentration, oral, rabbit 16, 72.00 h, MEHP after oral DEHP): 0.16 µM
- concentration at 72 h ([2]; New Zealand white, Serum concentration, oral, rabbit 17, 72.00 h, MEHP after oral DEHP): 0.21 µM
- concentration at 71.96 h ([2]; New Zealand white, Serum concentration, oral, rabbit 18, 71.96 h, MEHP after oral DEHP): 0.3 µM
- concentration at 168.02 h ([2]; New Zealand white, Serum concentration, rabbit 19, 168.02 h): 0.092 µM
- concentration at 168 h ([2]; New Zealand white, Serum concentration, rabbit 20, 168.00 h): 0.12 µM
- concentration at 17 wk [3]: 0.16 ± 0.058 ng/mL

— publication PMC8597046, “Use of Mixture Dosing and Nonlinear Mixed Effect Modeling of Eight Environmental Contaminants in Rabbits to Improve Extrapolation Value of Toxicokinetic Data” (Environmental Health Perspectives, 2021)
